According to the supplement of paper PMC10627819:

What was measured:
S. pneumoniae D39V [1] = experiment: fitness (endpoint OD595 vs no drug) (fraction); higher = more growth
Summary of the method: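 Cultures at OD595 0.01 were dispensed into 384-well plates in TSB, LB Lennox or CY and incubated at 37 °C. Every 30 min for 14 h, OD595 was read and corrected by the first reading. Fitness is the optical density at entry into stationary phase relative to the robust mean of no-drug control wells, capped at 1.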

B. subtilis 168 = experiment: Bliss interaction score (quartile over a dose matrix) (fitness difference); higher = more antagonism (negative = synergy)
Summary of the method: (§1)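 Combination data were used to infer fitness under each single drug. Fitness is the OD595 at entry into stationary phase divided by the robust mean of the plate's no-drug wells, with a cap of 1. The Bliss score is the observed minus the expected product fitness, summarised by quartiles over technical, biological and donor/recipient replicates.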

S. aureus DSM 20231 = experiment: as above
Summary of the method: as §1

S. aureus Newman = experiment: as above
Summary of the method: as §1

S. pneumoniae D39V [2] = experiment: as above
Summary of the method: as §1
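For Bliss interaction score (quartile over a dose matrix) in this document: first quartile when negative (synergy) and third quartile when positive (antagonism).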

CO/N=C(\C(=O)N[C@@H]1C(=O)N2C(C(=O)O)=C(COC(C)=O)CS[C@H]12)c1csc(N)n1 [Cefotaxime] + CO[C@H]1/C=C/O[C@@]2(C)Oc3c(C)c(O)c4c(O)c(c(/C=N/N5CCN(C)CC5)c(O)c4c3C2=O)NC(=O)/C(C)=C\C=C\[C@H](C)[C@H](O)[C@@H](C)[C@@H](O)[C@@H](C)[C@H](OC(C)=O)[C@@H]1C [Rifampicin]
fitness, S. pneumoniae D39V [1]
Details	first compound 0.0018 µg/mL	first compound 0.0035 µg/mL	first compound 0.007 µg/mL
partner 0.025 µg/mL	0.96	0.964	0.798
partner 0.1 µg/mL	–	–	0.159

S. pneumoniae D39V [1], partner 0.2 µg/mL, one replicate
Details	fitness
first compound 0.0018 µg/mL	0
first compound 0.0035 µg/mL	0
first compound 0.007 µg/mL	0

Details	Bliss interaction score
B. subtilis 168	0.0961
S. aureus DSM 20231	0.0866
S. aureus Newman	0.0597
S. pneumoniae D39V [2]	-0.0838

CO/N=C(\C(=O)N[C@@H]1C(=O)N2C(C(=O)O)=C(COC(C)=O)CS[C@H]12)c1csc(N)n1 [Cefotaxime] + C[C@@H](O)[C@H]1C(=O)N2C(C(=O)O)=C(SCCNC=N)C[C@H]12 [Imipenem]
fitness, S. pneumoniae D39V [1]
Details	partner 0.005 µg/mL	partner 0.0065 µg/mL	partner 0.01 µg/mL	partner 0.013 µg/mL	partner 0.02 µg/mL	partner 0.026 µg/mL
first compound 0.0018 µg/mL	0.966	0.976	0.937	≥ 1	0.932	0.973
first compound 0.0035 µg/mL	0.942	0.99	0.941	≥ 1	0.947	0.942
first compound 0.007 µg/mL	0.934	0.634	0.882	0.708	0.87	0.548

Details	Bliss interaction score
B. subtilis 168	-0.116
S. aureus DSM 20231	-0.0289
S. aureus Newman	0.0648
S. pneumoniae D39V [2]	0.0762

CO/N=C(\C(=O)N[C@@H]1C(=O)N2C(C(=O)O)=C(COC(C)=O)CS[C@H]12)c1csc(N)n1 [Cefotaxime] + Clc1ccc(COC(Cn2ccnc2)c2ccc(Cl)cc2Cl)c(Cl)c1 [Miconazole]
fitness, S. pneumoniae D39V [1]
Details	partner 1.073 µg/mL	partner 1.25 µg/mL	partner 2.145 µg/mL	partner 2.5 µg/mL	partner 4.29 µg/mL	partner 5 µg/mL
first compound 0.0018 µg/mL	≥ 1	0.919	0.967	0.96	0.94	0.936
first compound 0.0035 µg/mL	≥ 1	0.866	0.907	0.9	0.866	0.911
first compound 0.007 µg/mL	0.797	0.749	–	0.789	0.613	0.796

Details	Bliss interaction score
B. subtilis 168	0.104
S. aureus DSM 20231	-0.0534
S. aureus Newman	0.0393
S. pneumoniae D39V [2]	-0.0628

CO/N=C(\C(=O)N[C@@H]1C(=O)N2C(C(=O)O)=C(COC(C)=O)CS[C@H]12)c1csc(N)n1 [Cefotaxime] + O=C1CN(/N=C/c2ccc([N+](=O)[O-])o2)C(=O)N1 [Nitrofurantoin]
fitness, S. pneumoniae D39V [1]
Details	partner 1.285 µg/mL	partner 2 µg/mL	partner 2.57 µg/mL	partner 4 µg/mL	partner 8 µg/mL
first compound 0.0018 µg/mL	0.974	0.94	0.959	0.944	0.873
first compound 0.0035 µg/mL	0.963	0.92	0.965	0.916	0.822
first compound 0.007 µg/mL	0.923	0.844	0.923	0.821	0.733

S. pneumoniae D39V [1], partner 5.14 µg/mL, one replicate
Details	fitness
first compound 0.0018 µg/mL	0.981
first compound 0.0035 µg/mL	0.945
first compound 0.007 µg/mL	0.894

Details	Bliss interaction score
B. subtilis 168	-0.157
S. aureus DSM 20231	0.0224
S. aureus Newman	0.0592
S. pneumoniae D39V [2]	0.142

O=C(O)c1cn(C2CC2)c2cc(N3CCNCC3)c(F)cc2c1=O [Ciprofloxacin] + CC[C@H]1OC(=O)[C@H](C)[C@@H](O[C@H]2C[C@@](C)(OC)[C@@H](O)[C@H](C)O2)[C@H](C)[C@@H](O[C@@H]2O[C@H](C)C[C@H](N(C)C)[C@H]2O)[C@](C)(OC)C[C@@H](C)C(=O)[C@H](C)[C@@H](O)[C@]1(C)O [Clarithromycin]
fitness, S. pneumoniae D39V [1], one replicate
Details	partner 0.007812 µg/mL	partner 0.01562 µg/mL	partner 0.03125 µg/mL	partner 0.0625 µg/mL	partner 0.125 µg/mL	partner 0.25 µg/mL
first compound 0.125 µg/mL	0.839	0.844	0.627	–	–	–
first compound 0.25 µg/mL	0.742	0.746	0.536	0.349	0.17	0.0141
first compound 0.5 µg/mL	0.472	0.524	0.398	–	–	–

fitness, S. pneumoniae D39V [1]
Details	partner 0.0625 µg/mL	partner 0.07 µg/mL	partner 0.125 µg/mL	partner 0.14 µg/mL	partner 0.25 µg/mL	partner 0.28 µg/mL
first compound 0.125 µg/mL	0.473	0.151	0.246	0.0833	0.0576	0.0594
first compound 0.25 µg/mL	–	0.166	–	0.0864	–	0.0284
first compound 0.5 µg/mL	0.374	0.127	0.191	0.0639	0.0761	0.0531

Details	Bliss interaction score
B. subtilis 168	0.183
S. aureus DSM 20231	0.0952
S. aureus Newman	0.0708
S. pneumoniae D39V [2]	-0.0773

O=C(O)c1cn(C2CC2)c2cc(N3CCNCC3)c(F)cc2c1=O [Ciprofloxacin] + CO[C@H]1/C=C/O[C@@]2(C)Oc3c(C)c(O)c4c(O)c(c(/C=N/N5CCN(C)CC5)c(O)c4c3C2=O)NC(=O)/C(C)=C\C=C\[C@H](C)[C@H](O)[C@@H](C)[C@@H](O)[C@@H](C)[C@H](OC(C)=O)[C@@H]1C [Rifampicin]
fitness, S. pneumoniae D39V [1]
Details	first compound 0.125 µg/mL	first compound 0.25 µg/mL	first compound 0.5 µg/mL
partner 0.025 µg/mL	0.954	0.84	0.795
partner 0.05 µg/mL	–	–	0.688

S. pneumoniae D39V [1], partner 0.2 µg/mL, one replicate
Details	fitness
first compound 0.125 µg/mL	0
first compound 0.25 µg/mL	0
first compound 0.5 µg/mL	0

Details	Bliss interaction score
B. subtilis 168	0.162
S. aureus DSM 20231	-0.0712
S. aureus Newman	0.0614
S. pneumoniae D39V [2]	0.0532
